Assays:
[1] = xn = mol fraction of the nth substance listed; conditions: 100 kPa, Liquid, x2 = 0.334; for mass density: Vibrating tube method; for viscosity: Cone and plate viscometry
[2] = Crystal 2; visual observation
[3] = Molar enthalpy of transition or fusion; conditions: Crystal 2; DSC

NC(N)=O [urea] + C[N+](C)(C)CCO.[Cl-]
[1]
Conditions | mass density [kg/m3] | viscosity [mPa·s]
293.15 K | 1203 | –
293.25 K | – | 2110
299.45 K | – | 1286
303.15 K | 1197 | –
305.85 K | – | 725
312.15 K | – | 432
313.15 K | 1192 | –
318.35 K | – | 265
323.15 K | 1186 | –
324.55 K | – | 170
330.95 K | – | 116
333.15 K | 1180 | –
337.15 K | – | 83
343.15 K | 1175 | –
343.35 K | – | 61
349.55 K | – | 46
353.15 K | 1170 | –
355.85 K | – | 36
362.05 K | – | 27
363.15 K | 1164 | –
368.25 K | – | 21

C[N+](C)(C)CCO.[Cl-] [choline chloride]
Conditions | Molar enthalpy of transition or fusion [kcal/mol] | Triple point temperature [K]
[2] | – | 351.62
[3] | 1.75 | –

Reference: the NIST ThermoML archive (doi:10.1021/acs.jced.9b00474)
